# Assay results published in ChEMBL document CHEMBL3507680, “University of Dundee, Gates Library screen for HepG2 cell viability”.
# Assay: Human HepG2 cell viability assay in 384 well format
# Format: toxicity, cell-based
# Set-up: dose 125 nL, time 70.5 hour; concentration not given beside the values
# Settings: HepG2 cells, read-out: Inhibition
row,Structure (SMILES),cytotoxicity at 70.5 h
1,O=c1c2ccccc2nc2n1C(CSc1ccc(Br)cc1)CN2 (configuration not stated),0.264%
2,CS(=O)(=O)N1Cc2ccccc2C2(CCN(C(=O)c3ccno3)CC2)C1,7.95%
3,COCCN1C[C@@H]2CN(C(=O)[C@H]3CCCO3)C[C@@H]2C1=O,-15.9%
4,CC(=O)N1[C@@H](C(=O)NCC2CC2)C[C@@H]2CN(Cc3ccco3)C[C@@H]21,0.192%
5,COC1CC2(CCN(Cc3ccc4c(c3)OCO4)CC2)C1,-12.6%
6,CCN1C(=O)CCCC12CCCN(C(=O)c1conc1C)C2 (configuration not stated),-12.9%
7,O=C(Nc1ccccc1)C1=CC2(CCNCC2)c2ccccc21,3.63%
8,O=C(NC1CC1)c1ccc2ccc(N3CCN(CC4CC4)CC3)n2c1,6.77%
9,O=C(c1cccs1)N1CC[C@H](O)[C@@H]1Cc1ccccc1,29.4%
10,O=C1CC(c2ccccc2)C2(CCN(Cc3ccccn3)CC2)N1 (configuration not stated),-7.79%
11,CN(CC1CC1)c1ccc2ccc(C(=O)NCCN3CCOCC3)cn12,-5.52%
12,Cc1nc(N2CCCC2)nc2c1CN(C(=O)N1CCOCC1)CC2,-14.3%
13,CC(C)CN1CCC2(CCN(Cc3ccsc3)CC2)C1=O,6.07%
14,COc1ccc(S(=O)(=O)N2CCCC3(CCCN3S(C)(=O)=O)C2)cc1 (configuration not stated),8.26%
15,CS(=O)(=O)N1CCCC12CCCN(S(=O)(=O)c1cc(F)cc(F)c1)C2 (configuration not stated),-5.59%
16,CNC(=O)[C@@]12CCC3(CCN(S(C)(=O)=O)CC3)[C@@H]1CN(S(C)(=O)=O)C2,1.46%
17,Cc1nc(C)n(CC2CN(c3ncccn3)Cc3nccn3C2)n1 (configuration not stated),-8.98%
18,COCc1ncn2c1CN(C(=O)C1CC=CC1)CC2,-8.8%
19,O=C(Cc1ccccc1)N1CCC2(CC(=O)N(c3cccc(F)c3)C2)C1 (configuration not stated),-4.78%
20,O=C(c1ccoc1)N1CCC2(CC1)C(=O)Nc1ccccc12,-2.01%
21,CCS(=O)(=O)N1Cc2nccn2CC(Cn2nc(C)nc2C)C1 (configuration not stated),-13.6%
22,CN(C)C(=O)COC[C@]12COC[C@H]1CN(Cc1ccoc1)C2,-6.16%
23,O=C(c1cncnc1)N1CCCC(c2nccs2)C1 (configuration not stated),-3.47%

row,Structure (SMILES),cytotoxicity at 70.5 h
1,c1cc(CN2CCCC(c3ccnc4nccn34)C2)ccn1 (configuration not stated),-3.33%
2,Cc1cc(C)n(C2CCN(S(C)(=O)=O)CC2)n1,9.79%
3,O=S(=O)(N1CCCC1)N1CC(c2ccnc(Nc3ccccn3)n2)C1,8.07%
4,O=S1(=O)NC(c2ccnc(N3CCCCC3)n2)=Nc2ccccc21,7.4%
5,CN(C)c1cc(C2CCCN2C(=O)c2noc3c2CCCC3)ccn1 (configuration not stated),-6.7%
6,COc1ccc2c(c1)c(-c1nc(C)ncc1CN)cn2C,13.5%
7,Cc1cc(C)nc(N2CCC(c3ccnc(N(C)C)n3)CC2)n1,-3.9%
8,COc1ccccc1N1CC(NC(=O)Cn2cc(C)nn2)CC1=O (configuration not stated),-7.03%
9,CCN(CC)c1ncc2c(O)nc(C3CCNCC3)cc2n1,-4.7%
10,COCCN1CCCC(C)(c2cc(O)[nH]n2)C1 (configuration not stated),1.15%
11,CN(C)c1ncc2c(O)nc(C3CCCNC3)cc2n1 (configuration not stated),-3.16%
12,CN(C)c1nccc(C2CCN(c3ncccn3)CC2)n1,-0.97%
13,CN1CCC(c2cccc(NCc3nccn3C)n2)CC1,22.4%
14,CC(=O)N1CCC(c2cccc(NC3CCOCC3)n2)CC1,-1.75%
15,COCCNc1ncc(-c2cccc(F)c2)c(-c2nccn2C)n1,11%
16,CCOCCCNc1ncc(-c2cccc(F)c2)c(-c2nccn2C)n1,-3.33%
17,O=C(CC1CCN(c2cccnn2)CC1)Nc1cccnc1,-6.44%
18,CN(C)CCNC(=O)CC1CCN(c2cccnn2)CC1,-2.25%
19,CCNC(=O)C1(Cc2cc(-c3ccc(C)cc3)no2)CCCN(C)C1 (configuration not stated),-5.63%
20,CN1CCC(c2cccc(NCc3ccncc3)n2)CC1,-2.85%
21,COCCN1CCC1c1cc(N)nc(C)n1 (configuration not stated),-2.65%
22,Cc1cc(C)n(C2CCN(S(=O)(=O)N3CCC(C)CC3)CC2)n1,-3.62%
23,CNc1nc(C)c(C(=O)NCC(C)(C)N2CCCCC2)s1,-0.6%

row,Structure (SMILES),cytotoxicity at 70.5 h
1,CCCn1nc(C)c(-c2cncn2CC2(N(C)C)CCC(C)CC2)c1C (configuration not stated),-5.71%
2,CNC(=O)C1CN(c2ccnc(C)n2)CCN(C2CCOCC2)C1 (configuration not stated),-1.96%
3,c1cnc(Nc2cc(CCC3CCNCC3)ccn2)cn1,5.45%
4,CC(C)C(=O)N1CCCc2c(cnn2-c2ccccc2)C1,-5.24%
5,Cc1cc2c(c(=O)n1CCC(=O)O)C=CC(C)(C)O2,-2.47%
6,CNC(=O)C1(CCCc2ccccn2)CCN1Cc1coc(C)n1 (configuration not stated),14.6%
7,Cc1ccc(CC2COCCN(Cc3ccccc3)C2)nc1 (configuration not stated),-2.48%
8,CN1CCCC(Cc2cc(N(C)C)ncn2)C1 (configuration not stated),-5.24%
9,CC(Cn1cc(Cl)cn1)C(=O)Nc1ccc(CN2CCCCCC2)cc1 (configuration not stated),18.9%
10,COCC(=O)N1CCCCC1c1nc(C)c2c(n1)N(CC1CC1)C(=O)C2 (configuration not stated),-2.8%
11,Cc1nc(N)ncc1C(=O)N1CCCC1(C)C(=O)N(C)C (configuration not stated),-3.98%
12,CC(=O)Nc1ccc(CCC2(NC(=O)C3CC3)CCCCC2)cn1,-0.0205%
13,Cc1cc2ccncc2n1CC1(O)CCN(C(=O)c2cccnc2)CC1,-0.954%
14,Cc1ncc(-c2ccccn2)c(CCNC(=O)C2CCCC2)n1,14.1%
15,Cc1ncc(-c2ccccn2)c(CCNC(=O)CCC2CCCO2)n1 (configuration not stated),3.67%
16,CCn1cc(S(=O)(=O)N2CCCCCC2c2cc(C)no2)cn1 (configuration not stated),0.308%
17,Cc1nc(C)n(CC(=O)N2CCCC(c3nc(C)n4c(C)csc34)C2)n1 (configuration not stated),0.595%
18,Cc1csc2c(C3CCN(C(=O)Cn4cncn4)CC3)nc(C)n12,-2.36%
19,CNC(=O)C1CN(c2cc(C)ncn2)CCN1Cc1ccccc1 (configuration not stated),21.6%
20,CN(C)c1ncc(I)c(C2CCCN2S(C)(=O)=O)n1 (configuration not stated),44.4%
21,Cc1cc(Cc2cccc(C(F)(F)F)c2)cc(C2CCCNC2)n1 (configuration not stated),2.41%
22,Cc1ccc(CC(=O)N2CCOC(c3ncc(CN(C)C)[nH]3)C2)s1 (configuration not stated),-6.18%
23,Cc1ccc(C(=O)N2CCOC(c3ncc(CN(C)C)[nH]3)C2)cc1F (configuration not stated),-3.52%

row,Structure (SMILES),cytotoxicity at 70.5 h
1,Cc1ccccc1C(=O)N1CCOC(c2ncc(CN(C)C)[nH]2)C1 (configuration not stated),-6.83%
2,COc1cccc(CN2CCC(Cc3cnc(CN(C)C)cn3)CC2)c1,22.5%
3,CCN1C(=O)CC[C@@H]2N(C(=O)CCn3nccc3C)CCCC[C@@]21C,-6.96%
4,CN1CCN(C(=O)c2ccccc2)CC(Cc2cc(N(C)C)ncn2)C1 (configuration not stated),-3.72%
5,Cc1cccc(Cc2cc(C)nc(C3CCCNC3)c2)c1 (configuration not stated),2.77%
6,O=C(c1ccc2[nH]nnc2c1)N1CC[C@H](O)[C@]2(CCCO2)C1,-4.29%
7,CCNc1ncnc2c1CN(C1CCCNCC1)C(=O)CN2C (configuration not stated),1.19%
8,NC(=O)N1CC2(CCNCC2)c2cc(Cl)ccc21,-0.465%
9,C/C(=C\c1ccccc1)CN1CCCC(c2nnc3n2CCNCC3)C1 (configuration not stated),-6.58%
10,COc1ccccc1CN1CCCCC1c1n[nH]cc1-c1cc(C)no1 (configuration not stated),-6.18%
11,CN(C)c1ncc(-c2cncn2CCc2ccc3c(c2)OCCO3)cn1,-7.82%
12,Cc1nn(C)cc1-c1cncn1CCc1ccc2c(c1)OCCO2,-9.48%
13,CCc1ccc(CN2CCCCC2c2n[nH]cc2-c2cc(C)no2)cc1 (configuration not stated),-5.56%
14,CCn1nc(C)c(-c2cncn2CCN(C)C2CCCC2)c1C,-7.35%
15,Cc1cc(-c2nccs2)nc(C2CCN(Cc3ccncc3)CC2)n1,-0.926%
16,CNC[C@H]1CC[C@H](c2cc(CN(C)S(=O)(=O)N(C)C)n(C)n2)CC1,-3.44%
17,CCCn1nc(C)c(-c2cncn2CCN(C)C2CCCC2)c1C,-4.61%
18,Cc1ncccc1-c1cc2cccnc2n1CCCNC(=O)C(C)(C)C,2.29%
19,CCC(=O)NCCCn1c(-c2cccnc2C)cc2cccnc21,-1.81%
20,COc1ccc(C[C@H]2CN(C(=O)c3ccncc3)CC[C@@H]2OC)cc1,18.8%
21,C[C@@H]1CN(C(=O)c2cccs2)C[C@]12CCN(CCN(C)C)C2=O,21.2%
22,O=C1CCCN1Cc1nnc2n1CCN(Cc1ccoc1)CC2,30%
23,CC[C@@H]1N(Cc2ccsc2)CCC[C@]12CCC(=O)N2C,18.9%

row,Structure (SMILES),cytotoxicity at 70.5 h
1,CNC(=O)CN1CCCC12CCN(C(=O)c1ccc(F)cc1)CC2,-11%
2,CCOC1COC2(CCN(Cc3cccc(F)c3)CC2)C1 (configuration not stated),-12%
3,CC[C@@H]1N(Cc2ccsc2)CCC[C@]12CCC(=O)N2CCOC,-17.5%
4,COc1ccc(C[C@H]2CN(C(=O)CN(C)C)CC[C@H]2OC)cc1,-6.67%
5,c1ccc(N2CCCC3(CCN(Cc4cccs4)C3)C2)nc1 (configuration not stated),33.5%
6,CN(C)CCN1CCC2(CCN(C(=O)c3ccc(F)cc3)CC2)C1=O,-8.17%
7,O=C(C1CCCCC1)N1CCC2(CCCN2CC2CC2)CC1,-2.81%
8,CN(C)C(=O)CN1C(=O)CCC12CCN(Cc1ccc(F)cc1)CC2,5.3%
9,Cc1ccc(C(=O)N2CCC3(CC2)CC(N2CCCC2)C3)cc1,-10.8%
10,COc1ccc(CN2CCN(C(C)=O)CC3(CC(=O)N(C)C3)C2)cc1 (configuration not stated),-0.064%
11,Cn1cc(CN2CCCC3(CCN(c4nncs4)C3)C2)cn1 (configuration not stated),-0.185%
12,CNC(=O)N1CCc2cc(C(=O)N(C)C)c(NCC3CC3)nc2CC1,-12%
13,O=C(NCc1cnc2n1CCN(Cc1ccsc1)CC2)C1CCC1,-10.8%
14,CCS(=O)(=O)N[C@@H]1CN(Cc2cc(C)on2)C[C@@H]2CCCO[C@@H]21,-10.1%
15,C[C@@H]1CN(Cc2ccsc2)C[C@]12CCN(Cc1cccnc1)C2=O,39%
16,Cc1cccc(CN2C(=O)CCC23CCN(Cc2cccn2C)CC3)n1,-3.65%
17,CN(C)CCN1C(=O)CCC12CCN(C(=O)c1cccnc1)CC2,-4%
18,CC(C)CN1CCN(C)C2(CCN(Cc3ccsc3)CC2)C1=O,0.403%
19,CCN1CCC2(CCC(=O)N2Cc2cccc(C)n2)CC1,-4.89%
20,Cc1cc(CN2C[C@@H]3CCCO[C@@H]3[C@H](Nc3ccccn3)C2)no1,-8.77%
